Experimental data: patent publication US8211924B2, “1-(azolin-2-yl)amino-1,2-diphenylethane compounds for combating animal pests” (BASF SE, priority 2007, dated 2012)
Like-named read-outs stand apart in the source and are kept apart here.

Experiments:
Experiment in all cases: whole plant or invertebrate
Format in all cases: in vivo
Silverleaf Whitefly = settings: Bemisia argentifolii; for mortality at 10 ppm: concentration 10 ppm; for mortality at 100 ppm: concentration 100 ppm
Experimental: Selected cotton plants were grown to the cotyledon state (one plant per pot). The cotyledons were dipped into the test solution to provide complete coverage of the foliage and placed in a well-vented area to dry. […] The tip, containing the collected insects, was then gently inserted into the soil containing the treated plant, allowing insects to crawl out of the tip to reach the foliage for feeding. The cups were covered with a re-usable screened lid (150 micron mesh polyester screen PeCap from Tetko Inc). Test plants were maintained in the holding room at about 25° C. and 20-40% relative humid-ity for 3 days avoiding direct exposure to the fluorescent light (24 hour photoperiod) to prevent trapping of heat inside the cup. Mortality was assessed 3 days after treatment of the plants.
by evaluation of the test shown in paragraph III.).

[1] = test system: Cotton aphid (Aphis gossypi); settings: 120 h, cotton cotyledons dipped, determined after 5 days, read-out: mortality in comparison with untreated controls
Experimental: (§1) Cotton plants in the cotyledon stage (variety ‘Delta Pine’) are infested with approximately 100 laboratory-reared aphids by placing infested leaf sections on top of the test plants. The leaf sections are removed after 24 hours. The cotyledons of the intact plants are dipped into gradient solutions of the test compound. Aphid mortality on the treated plants, relative to mortality on check plants, is determined after 5 days.

[2] = test system: Green Peach Aphid (Myzus persicae); settings: 120 h, pepper leaves dipped, determined after 5 days, read-out: mortality in comparison with untreated controls
Experimental: as §1, with “Pepper” for “Cotton”, “2nd leaf-pair” for “cotyledon”, “‘California Wonder’)” for “‘Delta Pine’)”, “40” for “100”, “leaves” for “cotyledons”

[3] = 72 h, 300 ppm, cotton cotyledons dipped, assessed 3 days after treatment, read-out: mortality in comparison with untreated controls
[4] = in Gossypium hirsutum, comparative example 1, test of paragraph III, read-out: mortality in comparison with untreated controls [%]
[5] = in Gossypium hirsutum, concentration 300 ppm, comparative example 1, test of paragraph III, read-out: mortality in comparison with untreated controls [%]

C#CCN1CCSC1=NC(Cc1cc(C)cc(C)c1)c1cccc(Cl)c1Cl (stereo not drawn) [Example 1, 1-(3-prop-2-ynyl-thiazolidin-2-ylidene)amino-1-(2,3-dichlorophenyl)-2-(3,5-dimethylphenyl)-ethane]
mortality at 300 ppm (Silverleaf Whitefly; [3]): > 70% | mortality at 10 ppm (Silverleaf Whitefly; [4]): 100% | mortality at 100 ppm (Silverleaf Whitefly; [4]): 100% | mortality at 300 ppm (Silverleaf Whitefly; [5]): 100% | mortality at 300 ppm [1]: > 70% | mortality at 300 ppm [2]: > 70%

Cc1cc(C)cc(CC(N=C2SCCN2CCCOC2CCCCO2)c2cccc(Cl)c2Cl)c1 (stereo not drawn) [Example 2, 1-{3-[3-(tetrahydropyran-2-yloxy)propyl]thiazolidin-2-ylidene}amino-1-(2,3-dichlorophenyl)-2-(3,5-dimethylphenyl)-ethane]
mortality at 300 ppm (Silverleaf Whitefly; [3]): > 70% | mortality at 300 ppm [1]: > 70% | mortality at 300 ppm [2]: > 70%

Cc1cc(C)cc(CC(N=C2SCCN2C2=NCCS2)c2cccc3c2OC(F)(F)O3)c1 (stereo not drawn) [Example 3, 1-(4,5,4′,5′-tetrahydro-[2,3]-bithiazolyl-2′-ylidene)amino-1-(2,2-difluoro-benzo[1,3]dioxol-4-yl)-2-(3,5-dimethyl-phenyl)-ethane]
mortality at 300 ppm (Silverleaf Whitefly; [3]): > 70% | mortality at 300 ppm [1]: > 70% | mortality at 300 ppm [2]: > 70%

Cc1cc(C)cc(CC(N=C2SCCN2C(=S)Nc2cccc(C(F)(F)F)c2)c2cccc(Cl)c2Cl)c1 (stereo not drawn) [Example 4, 2-[1-(2,3-dichlorophenyl)-2-(3,5-dimethylphenyl)ethylimino]-thiazolidine-3-carbothioic acid (3-trifluoromethylphenyl)amide]
mortality at 300 ppm (Silverleaf Whitefly; [3]): > 70% | mortality at 10 ppm (Silverleaf Whitefly; [4]): 50% | mortality at 100 ppm (Silverleaf Whitefly; [4]): 100% | mortality at 300 ppm (Silverleaf Whitefly; [5]): 100% | mortality at 300 ppm [1]: > 70% | mortality at 300 ppm [2]: > 70%

Cc1cc(C)cc(CC(NC2=NCCS2)c2cccc(Cl)c2Cl)c1 (stereo not drawn) [compound C.3, reference compound]
mortality at 10 ppm (Silverleaf Whitefly; [4]): 0% | mortality at 100 ppm (Silverleaf Whitefly; [4]): 100% | mortality at 300 ppm (Silverleaf Whitefly; [5]): 100%
